Measured values taken from ChEMBL document CHEMBL5236625, “New class of fused [3,2-b][1,2,4]triazolothiazoles for targeting glioma in vitro” (Bioorg Med Chem Lett, 2023).
pIC50: −log10 of the molar value. One block for each molecule: values may come before it. The source made the active and inactive calls. No cut-off for these calls is given here.

Experiments:
[1] = tested on: C6; experiment: Cytotoxicity against rat C6 cells assessed as cell viability measured upto 108 hrs by MTT assay; format: functional, cell-based; settings: C6, 108 h
[2] = tested on: LN-18; experiment: Cytotoxicity against human LN-18 cells assessed as cell viability measured upto 108 hrs by MTT assay; format: functional, cell-based; settings: LN-18, 108 h
[3] = tested on: C6; experiment: Inhibition of colony formation in rat C6 cells at 10 to 100 uM measured after 48 hrs by clonogenic assay; format: functional, cell-based; settings: dose 10-100 µM
[4] = tested on: LN-18; experiment: Inhibition of colony formation in human LN-18 cells at 10 to 100 uM measured after 48 hrs by clonogenic assay; format: functional, cell-based; settings: dose 10-100 µM
[5] = tested on: C6; experiment: Antimigratory activity against rat C6 cells assessed as rate of cell migration measured at 100 uM by wound healing assay (reference value: 21.95 um/hr); format: functional
[6] = tested on: LN-18; experiment: Antimigratory activity against human LN-18 cells assessed as rate of cell migration measured at 100 uM by wound healing assay (reference value: 24.46 um/hr); format: functional
[7] = tested on: C6; experiment: Induction of cell cycle arrest in rat C6 cells assessed as cell population in sub-G1 phase at 10 uM (reference value: 60%); format: functional
[8] = tested on: LN-18; experiment: Induction of cell cycle arrest in human LN-18 cells assessed as cell population in sub-G1 phase at 10 uM (reference value: 44%); format: functional
[9] = tested on: C6; experiment: Induction of apoptosis in rat C6 cells assessed as cell population in […] at 50 to 100 uM (reference value: 2 to 7%); format: functional; settings: dose 50-100 µM
[10] = tested on: LN-18; experiment: Induction of apoptosis in human LN-18 cells assessed as cell population in […] at 50 to 100 uM (reference value: 2 to 7%); format: functional; settings: dose 50-100 µM
[11] = species: Rattus norvegicus; experiment: Inhibition of ERK phosphorylation in rat C6 cells by Western blot analysis; format: cell-based; settings: dose 50-100 µM
[12] = tested on: LN-18; experiment: Inhibition of ERK phosphorylation in human LN-18 cells by Western blot analysis; format: cell-based; settings: dose 10-100 µM
[13] = tested on: C6; experiment: Inhibition of AKT phosphorylation at Thr308 in rat C6 cells by Western blot analysis; format: cell-based; settings: dose 10-100 µM
[14] = tested on: C6; experiment: Inhibition of AKT phosphorylation at Ser473 in rat C6 cells by Western blot analysis; format: cell-based; settings: dose 10-100 µM
[15] = molecular target: T1, Serine/threonine-protein kinase AKT (Homo sapiens) (UniProt P31751+Q9Y243+P31749); experiment: Inhibition of AKT phosphorylation at Thr308 in human LN-18 cells by Western blot analysis; format: cell-based; settings: dose 10-100 µM
[16] = molecular target: T1, Serine/threonine-protein kinase AKT (Homo sapiens); experiment: Inhibition of AKT phosphorylation at Ser473 in human LN-18 cells by Western blot analysis; format: cell-based; settings: dose 10-100 µM
[17] = tested on: C6; experiment: Induction of apoptosis in rat C6 cells assessed as reduction in IRE1 expression at 10 to 100 uM by Western blot analysis; format: functional, cell-based; settings: dose 10-100 µM
[18] = tested on: LN-18; experiment: Induction of apoptosis in human LN-18 cells assessed as reduction in IRE1 expression at 10 to 100 uM by Western blot analysis; format: functional, cell-based; settings: dose 10-100 µM
[19] = tested on: C6; experiment: Induction of apoptosis in rat C6 cells assessed as reduction in XBP1 expression at 10 to 100 uM by Western blot analysis; format: functional, cell-based; settings: dose 10-100 µM
[20] = tested on: LN-18; experiment: Induction of apoptosis in human LN-18 cells assessed as reduction in XBP1 expression at 10 to 100 uM by Western blot analysis; format: functional, cell-based; settings: dose 10-100 µM
[21] = tested on: C6; experiment: Induction of apoptosis in rat C6 cells assessed as increase in Bax expression at 10 to 100 uM by Western blot analysis; format: functional, cell-based; settings: dose 10-100 µM
[22] = tested on: LN-18; experiment: Induction of apoptosis in human LN-18 cells assessed as increase in Bax expression at 10 to 100 uM by Western blot analysis; format: functional, cell-based; settings: dose 10-100 µM
[23] = tested on: C6; experiment: Induction of cell cycle arrest in rat C6 cells assessed as cell population in G2-M phase at 10 uM (reference value: 19.3%); format: functional
[24] = tested on: LN-18; experiment: Induction of cell cycle arrest in human LN-18 cells assessed as cell population in G2-M phase at 10 uM (reference value: 39.4%); format: functional
[25] = Solubility in DMSO; format: physicochemical

T1 sequence (P31749 whole entry, looked up): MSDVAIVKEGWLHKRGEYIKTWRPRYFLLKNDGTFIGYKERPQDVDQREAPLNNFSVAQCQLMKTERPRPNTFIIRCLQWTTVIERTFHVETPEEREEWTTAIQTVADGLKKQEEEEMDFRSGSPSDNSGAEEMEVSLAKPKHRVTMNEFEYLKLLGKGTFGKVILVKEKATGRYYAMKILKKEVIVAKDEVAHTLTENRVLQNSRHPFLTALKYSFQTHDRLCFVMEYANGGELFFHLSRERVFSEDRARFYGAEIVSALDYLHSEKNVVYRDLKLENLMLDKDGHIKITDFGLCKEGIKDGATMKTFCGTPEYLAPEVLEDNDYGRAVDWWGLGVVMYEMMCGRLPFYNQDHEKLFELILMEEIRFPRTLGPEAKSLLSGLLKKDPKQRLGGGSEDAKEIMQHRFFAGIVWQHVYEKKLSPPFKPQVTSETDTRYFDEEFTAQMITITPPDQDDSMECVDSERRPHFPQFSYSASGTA
T1 sequence (P31751 whole entry, looked up): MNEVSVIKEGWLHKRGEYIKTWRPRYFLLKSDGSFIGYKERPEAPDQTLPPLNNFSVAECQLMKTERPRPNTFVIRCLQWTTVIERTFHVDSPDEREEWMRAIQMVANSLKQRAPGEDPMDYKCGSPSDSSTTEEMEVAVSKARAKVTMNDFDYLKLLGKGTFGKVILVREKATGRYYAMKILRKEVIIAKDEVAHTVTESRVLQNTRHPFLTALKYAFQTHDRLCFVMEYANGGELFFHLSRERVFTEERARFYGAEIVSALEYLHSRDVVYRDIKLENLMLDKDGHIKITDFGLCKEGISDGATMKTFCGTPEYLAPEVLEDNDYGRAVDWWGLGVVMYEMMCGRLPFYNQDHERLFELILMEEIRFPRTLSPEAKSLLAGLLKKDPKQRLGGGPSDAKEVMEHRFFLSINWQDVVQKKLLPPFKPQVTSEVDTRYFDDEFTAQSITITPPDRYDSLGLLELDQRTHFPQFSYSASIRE
T1 sequence (Q9Y243 whole entry, looked up): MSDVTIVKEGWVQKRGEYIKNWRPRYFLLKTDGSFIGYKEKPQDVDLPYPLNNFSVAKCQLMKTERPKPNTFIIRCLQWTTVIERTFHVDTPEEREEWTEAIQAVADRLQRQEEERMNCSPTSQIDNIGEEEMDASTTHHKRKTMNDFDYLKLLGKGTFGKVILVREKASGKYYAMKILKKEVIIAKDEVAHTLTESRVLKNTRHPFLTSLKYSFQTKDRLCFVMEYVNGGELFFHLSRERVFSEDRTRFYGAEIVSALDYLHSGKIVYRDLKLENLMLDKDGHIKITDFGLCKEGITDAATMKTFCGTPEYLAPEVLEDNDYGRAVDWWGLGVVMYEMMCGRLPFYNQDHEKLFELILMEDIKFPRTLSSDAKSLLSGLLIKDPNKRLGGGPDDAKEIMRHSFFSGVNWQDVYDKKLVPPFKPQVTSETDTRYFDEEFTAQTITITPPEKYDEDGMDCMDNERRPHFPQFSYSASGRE

- inhibition [15]: Dose-Dependent Effect
- inhibition [16]: Dose-Dependent Effect
SMILES: O=[N+]([O-])c1ccc(-c2csc3nc(/N=C/c4ccc(Cl)cc4)nn23)cc1
- pIC50 [1]: 5.06
- pIC50 [2]: 4.90
- inhibition [3]: Active
- inhibition [4]: Active
- Activity [5]: 13.6 um/hr
- Activity [6]: 15.04 um/hr
- Activity [7]: 66.5%
- Activity [8]: 50%
- Activity [9]: 35%
- Activity [10]: 35%
- inhibition [11]: Dose-Dependent Effect
- inhibition [12]: Dose-Dependent Effect
- inhibition [13]: Dose-Dependent Effect
- inhibition [14]: Dose-Dependent Effect
- Activity [17]: Active
- Activity [18]: Active
- Activity [19]: Active
- Activity [20]: Active
- Activity [21]: Active
- Activity [22]: Active

- inhibition [15]: Dose-Dependent Effect
- inhibition [16]: Dose-Dependent Effect
SMILES: O=C1c2ccccc2C(=O)N1c1nc2scc(-c3ccc(Br)cc3)n2n1
- pIC50 [1]: 5.09
- pIC50 [2]: 4.90
- inhibition [3]: Active
- inhibition [4]: Active
- Activity [5]: 8.96 um/hr
- Activity [6]: 14.36 um/hr
- Activity [23]: 31.9%
- Activity [24]: 54.9%
- Activity [9]: 47%
- Activity [10]: 47%
- inhibition [11]: Dose-Dependent Effect
- inhibition [12]: Dose-Dependent Effect
- inhibition [13]: Dose-Dependent Effect
- inhibition [14]: Dose-Dependent Effect
- Activity [17]: Active
- Activity [18]: Active
- Activity [19]: Active
- Activity [20]: Active
- Activity [21]: Active
- Activity [22]: Active

- solubility [25]: Insoluble
SMILES: COc1ccc(-c2csc3nc(/N=C/c4ccc(Cl)cc4Cl)nn23)cc1
- pIC50 [1]: 5.12
- pIC50 [2]: 4.67

- solubility [25]: Insoluble
SMILES: O=C1c2ccccc2C(=O)N1c1nc2scc(-c3ccc(-c4ccccc4)cc3)n2n1
- pIC50 [1]: 5.24
- pIC50 [2]: 5.05
